In patent US20210030039A1, “Prebiotic Compositions And Methods Of Production Thereof” (Optibiotix Limited, priority 2018, published 2021):

Legend:
[1] = Sensory profiling (QDA) by trained sensory panel, unstructured line scales 0-100; type: in vivo, human
Description: A trained sensory panel at the Reading Sensory Science Centre (UK) were employed for sensory profiling of the samples. There were 10 panellists with between 1 and 9 years' experience. A QDA (quantitative descriptive analysis) profiling approach was taken. The panel used the same vocabulary that they had developed as a consensus for the tasting sessions including the term liquorice flavour which is characteristic note of steviol glycosides. The panel were retrained at the start of the sample set over 3 separate tasting sessions. This re-training focused on ensuring that they could reliably score sweetness relative to the new concentration of sucrose standard positions. Rating was carried out independently using unstructured lines scales (scaled 0-100), in duplicate, in isolated sensory booths. However, in order to improve discrimination for sweetness, the four sucrose samples were used as standards and the mean values for each of these samples, as agreed by the panel, are shown in Table 1 below. At the start of each scoring session the panel tasted the four reference samples in order of increasing strength to re-familiarise themselves with the positioning of these levels of sweetness on the line scale. The reference samples (10 mL) were served in transparent polystyrene cups (30 mL). They then palate cleansed with warm filtered tap water and low salt crackers (Carr's water crackers) before commencing the sample tasting session, and again between each sample scoring session. Samples, labelled with random 3 digit codes, were presented in a balanced presentation order in a monadic sequential manner with a maximum of 6 samples per day. Samples were served at 23-24° C. (room temperature) with air conditioning of the room set to 23° C.

[2] = reported; cited from earlier work

Structure (SMILES) | Mean Rating (0-100), sweetness standard ([1]; Standard 1, sucrose 2.0 % w/v) | Mean Rating (0-100), sweetness standard ([1]; Standard 2, sucrose 4.0 % w/v) | Mean Rating (0-100), sweetness standard ([1]; Standard 3, sucrose 6.0 % w/v) | Mean Rating (0-100), sweetness standard ([1]; Standard 4, sucrose 8.0 % w/v) | sweet potency relative to sucrose [2] [×]
OC[C@H]1O[C@@](CO)(O[C@H]2O[C@H](CO)[C@@H](O)[C@H](O)[C@H]2O)[C@@H](O)[C@@H]1O [Sucrose] | 10 | 35 | 75 | 100 | 
C[C@H](CC[C@@H](O[C@@H]1O[C@H](CO[C@@H]2O[C@H](CO)[C@@H](O)[C@H](O)[C@H]2O)[C@@H](O)[C@H](O)[C@H]1O[C@@H]1O[C@H](CO)[C@@H](O)[C@H](O)[C@H]1O)C(C)(C)O)[C@H]1CC[C@@]2(C)[C@@H]3CC=C4[C@@H](CC[C@H](O[C@@H]5O[C@H](CO[C@@H]6O[C@H](CO)[C@@H](O)[C@H](O)[C@H]6O)[C@@H](O)[C@H](O)[C@H]5O)C4(C)C)[C@]3(C)[C@H](O)C[C@]12C [Mogroside V] |  |  |  |  | ~400
